Patent US11299487B2, “Compounds and compositions as modulators of TLR signaling” (Neuropore Therapies, Inc., priority 2019, dated 2022)

Tests used:
human TLR2 [1] = biological target: T1, human TLR2 (Homo sapiens, UniProt O60603); assay: HEK-Blue hTLR2 antagonism assay (SEAP reporter) with agonist Pam2CSK4 (TLR2/6 agonist); format: cell-based; settings: HEK-Blue hTLR2 cells, ~3×EC50 Pam2CSK4, 18 h, SEAP OD 655 nm, 8-point dilutions
T1 construct: host or cells: HEK-Blue hTLR2 (HEK-293)
Protocol: (§1) Synthetic diacylated lipoprotein (Pam2CSK4, TLR2/6 agonist) and synthetic triacylated lipoprotein (Pam3CSK4, TLR1/2 agonist) were obtained from InvivoGen and were dissolved in endotoxin-free water to a concentration 1 mg/mL, vortexed until complete solubilization, and stored in aliquots at −20° C. Prior to addition to cells, an aliquot of the dissolved ligand was vortexed shortly and then was diluted in medium to 25 ng/mL Pam2CSK4 or 1000 ng/mL Pam3CSK4.
(§2) Test compounds were solubilized fresh to 10-20 mM stocks in DMSO and sonicated for 5-10 minutes in a water bath sonicator. Serial dilutions were prepared in DMSO, and then diluted in medium. The final concentration of DMSO used in the assay was 1%.
(§3) HEK-Blue hTLR2 reporter cells (InvivoGen) are HEK-293 cells stably expressing both the human TLR2 gene and a secreted embryonic alkaline phosphatase (SEAP) reporter construct downstream of NFκB promotor sites. HEK-Blue hTLR2 reporters were cultured according to manufacturer's protocol using Dulbecco's Modified Eagle Medium (DMEM; Gibco) containing 1× GlutaMax (Gibco), 10% heat-inactivated Fetal Bovine Serum (Gibco), Pen-Strep (50 U/mL penicillin, 50 μg/mL streptomycin, Gibco), 100 μg/mL Normocin (InvivoGen), and the selective antibiotic, 1×HEK-Blue Selection (InvivoGen). Quanti-Blue reagent (InvivoGen) for detection and quantification of secreted alkaline phosphatase was dissolved in 100 mL of endotoxin-free water, warmed to 37° C. for 30 minutes and then filtered using a 0.2 μm membrane.
(§4) On day 1, 50 μL of each test compound dilution in duplicates or a vehicle control was added to each well of a 96-well plate followed by addition of 150 μL of HEK-Blue hTLR2 cell suspension (1×10^5 cells/well) and incubated at 37° C./5% CO2 for 2 h. Next, 50 μL of an approximate 3×EC50 concentration of each agonist (Pam2CSK4 or Pam3CSK4) was added to the wells containing test compounds or the vehicle control. The plates were then incubated at 37° C./5% CO2 for 18 h. For each assay run, non-treated HEK-Blue hTLR2 cells were treated with serial dilutions of agonists to determine EC50 values for the respective run.
(§5) On day 2, secreted alkaline phosphatase (SEAP) activity was detected in cell culture supernatants. In brief, 20 μL was collected from each well and transferred to a 96-well plate. Next, 200 μL of Quanti-Blue detection reagent was added to each well. Plates were incubated at room temperature for 15 min. and SEAP activity was assessed by spectrophotometer OD reading at 655 nm. […] IC50 values were calculated based on 8-point dilutions for each compound.

human TLR2 [2] = biological target: T1, human TLR2; assay: HEK-Blue hTLR2 antagonism assay (SEAP reporter) with agonist Pam3CSK4 (TLR1/2 agonist); format: cell-based; settings: HEK-Blue hTLR2 cells, ~3×EC50 Pam3CSK4, 18 h, SEAP OD 655 nm, 8-point dilutions
Protocol: as §1, §2, §3, §4, §5

T1 sequence (O60603 21-784): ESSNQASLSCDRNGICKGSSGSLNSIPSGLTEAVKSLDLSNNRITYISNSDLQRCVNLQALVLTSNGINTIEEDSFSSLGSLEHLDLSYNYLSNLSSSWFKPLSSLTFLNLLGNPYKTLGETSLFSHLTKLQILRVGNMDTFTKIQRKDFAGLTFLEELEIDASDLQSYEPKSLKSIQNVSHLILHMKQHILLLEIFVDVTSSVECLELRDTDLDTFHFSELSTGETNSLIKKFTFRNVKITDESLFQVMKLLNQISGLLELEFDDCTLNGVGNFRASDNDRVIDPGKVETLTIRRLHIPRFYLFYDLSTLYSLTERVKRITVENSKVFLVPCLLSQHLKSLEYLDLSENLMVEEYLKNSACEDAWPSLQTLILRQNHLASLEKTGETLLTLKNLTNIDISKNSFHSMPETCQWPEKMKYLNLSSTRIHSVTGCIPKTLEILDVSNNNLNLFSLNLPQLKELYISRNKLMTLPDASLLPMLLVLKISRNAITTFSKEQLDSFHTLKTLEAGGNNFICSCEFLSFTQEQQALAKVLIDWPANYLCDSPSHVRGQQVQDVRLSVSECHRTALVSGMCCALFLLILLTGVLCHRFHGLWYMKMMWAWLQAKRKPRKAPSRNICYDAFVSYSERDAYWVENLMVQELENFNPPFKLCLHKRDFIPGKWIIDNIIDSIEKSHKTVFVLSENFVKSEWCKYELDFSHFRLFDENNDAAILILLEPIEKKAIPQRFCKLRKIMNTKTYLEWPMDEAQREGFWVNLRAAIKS

| Compound | IC50 (human TLR2 [1]; Table B) [µM] | IC50 (human TLR2 [2]; Table B) [µM] | IC50 (human TLR2 [1]; Table A) [µM] | IC50 (human TLR2 [2]; Table A) [µM] |
| --- | --- | --- | --- | --- |
| O=Cc1cc(C(=O)Nc2ccc(N3C[C@H]4CCC[C@H]4C3)nc2)cc(F)c1O [Compound B103, 3-fluoro-5-formyl-N-(6-((3aR,6aS)-hexahydrocyclopenta[c]pyrrol-2(1H)-yl)pyridin-3-yl)-4-hydroxybenzamide] | 1.7 | 1 | – | – |
| CC(=O)N/N=C/c1cc(-c2cnn(-c3ccc(N4CCCC4)cc3)c2)cc(F)c1O [Compound A38, N′-(3-fluoro-2-hydroxy-5-(1-(4-(pyrrolidin-1-yl)phenyl)-1H-pyrazol-4-yl)benzylidene)acetohydrazide] | – | – | 0.4 | 0.4 |
| Oc1c(F)cc(-c2cnn(-c3ccc(N4CCCC4)cc3)c2)cc1/C=N/N1CCOCC1 [Compound A37, (E)-2-fluoro-6-((morpholinoimino)methyl)-4-(1-(4-(pyrrolidin-1-yl)phenyl)-1H-pyrazol-4-yl)phenol] | – | – | > 100 | > 100 |
| O=Cc1cc(C#Cc2ccc(N3CCCCC3)cc2)cc(F)c1O [Compound B2, 3-fluoro-2-hydroxy-5-((4-(piperidin-1-yl)phenyl)ethynyl)benzaldehyde] | 0.5 | 0.3 | – | – |
| O=Cc1cc(-c2ccn(-c3cccc(N4CCCC4)c3)n2)cc(F)c1O [Compound A30, 3-fluoro-2-hydroxy-5-(1-(3-(pyrrolidin-1-yl)phenyl)-1H-pyrazol-3-yl)benzaldehyde] | – | – | 2.1 | 2.2 |
| O=Cc1cc(C(=O)Nc2cccc(N3CCCCC3)c2)cc(F)c1O [Compound B72, 3-fluoro-5-formyl-4-hydroxy-N-(3-(piperidin-1-yl)phenyl)benzamide] | 4.6 | 2.4 | – | – |
| Cc1cc(-c2cnn(-c3ccccc3)c2)cc(Cl)c1O [Compound A17, 2-chloro-6-methyl-4-(1-phenyl-1H-pyrazol-4-yl)phenol] | – | – | 52.6 | 43.4 |
| Cc1nc(-c2ccc(N3CCCC3)nc2)sc1-c1cc(F)c(O)c(C=O)c1 [Compound A104, 3-fluoro-2-hydroxy-5-(4-methyl-2-(6-(pyrrolidin-1-yl)pyridin-3-yl)thiazol-5-yl)benzaldehyde] | – | – | 6.8 | 3.9 |
| O=Cc1cc(C(=O)Nc2ccc(N3CCCC3)nc2)cc(F)c1O [Compound B61, 3-fluoro-5-formyl-4-hydroxy-N-(6-(pyrrolidin-1-yl)pyridin-3-yl)benzamide] | 16.4 | 9.3 | – | – |
| O=Cc1cc(C(=O)Nc2ccc(N3CCN(C4CC4)CC3)cc2)cc(F)c1O [Compound B69, N-(4-(4-cyclopropylpiperazin-1-yl)phenyl)-3-fluoro-5-formyl-4-hydroxybenzamide] | 7.6 | 2.3 | – | – |
| Oc1c(F)cc(-c2cnn(-c3ccc(N4CCCC4)cc3)c2)cc1/C=N/c1ccccc1 [Compound A39, (E)-2-fluoro-6-((phenylimino)methyl)-4-(1-(4-(pyrrolidin-1-yl)phenyl)-1H-pyrazol-4-yl)phenol] | – | – | 0.5 | 0.5 |
| O=Cc1cc(-c2cnn(-c3cccc(N4CCOCC4)c3)c2)cc(F)c1O [Compound A24, 3-fluoro-2-hydroxy-5-(1-(3-morpholinophenyl)-1H-pyrazol-4-yl)benzaldehyde] | – | – | 4.3 | 5.4 |
| O=Cc1cc(C(=O)Nc2ccc(N3C4CCCC3CC4)cc2)cc(F)c1O [Compound B96, N-(4-(8-azabicyclo[3.2.1]octan-8-yl)phenyl)-3-fluoro-5-formyl-4-hydroxybenzamide] | 1.4 | 1.1 | – | – |
| CN(CC(C)(C)C)c1ccc(NC(=O)c2cc(F)c(O)c(C=O)c2)cc1 [Compound B94, 3-fluoro-5-formyl-4-hydroxy-N-(4-(methyl(neopentyl)amino)phenyl)benzamide] | 1 | 0.9 | – | – |
| O=Cc1cc(-c2cn(-c3cccc(N4CCCC4)c3)nn2)cc(F)c1O [Compound A45, 3-fluoro-2-hydroxy-5-(1-(3-(pyrrolidin-1-yl)phenyl)-1H-1,2,3-triazol-4-yl)benzaldehyde] | – | – | 1.3 | 1.3 |
| O=Cc1cc(-c2cnc(-c3ccc(N4CCCC4)cc3)s2)ncc1O [Compound A112, 5-hydroxy-2-(2-(4-(pyrrolidin-1-yl)phenyl)thiazol-5-yl)isonicotinaldehyde] | – | – | 0.3 | 0.2 |
| CC1(C)CCN(c2ccc(-c3csc(-c4cc(F)c(O)c(C=O)c4)n3)cc2)C1 [Compound A105, 5-(4-(4-(3,3-dimethylpyrrolidin-1-yl)phenyl)thiazol-2-yl)-3-fluoro-2-hydroxybenzaldehyde] | – | – | 1.9 | 0.5 |
| O=Cc1cc(C(=O)Nc2ccc(N3CCC(N4CCCC4)CC3)cc2)cc(F)c1O [Compound B84, 3-fluoro-5-formyl-4-hydroxy-N-(4-(4-(pyrrolidin-1-yl)piperidin-1-yl)phenyl)benzamide] | 33.9 | 14.3 | – | – |
| COc1cc(-c2cnn(C3CCOCC3)c2)cc(C=O)c1O [Compound A5, 2-hydroxy-3-methoxy-5-(1-(tetrahydro-2H-pyran-4-yl)-1H-pyrazol-4-yl)benzaldehyde] | – | – | > 100 | > 100 |
